Assay: Antioxidant activity, ABTS microplate assay (Trolox standard)
Type: biochemical
Conditions: FIG. 3; result in words
Text: Since antioxidants neutralize the ROS, antioxidant activity of the nutraceutical would be of importance for product development. The principle underlying the antioxidant assay is formation of a ferryl myoglobin radical from metmyoglobin and hydrogen peroxide, which oxidizes ABTS (2,2′-azino-bis(3-ethylbenzthiazoline-6-sulfonic acid) to produce radical cation, ABTS+, a soluble chromogen that is green in color and can be determined spectrophotometrically at 405 nm. Antioxidants suppress the production of the radical cation in a concentration dependent manner and the color intensity decreases proportionally. Trolox, a water soluble vitamin E analog, is used as a control antioxidant for analyzing the antioxidant activity of other nutraceuticals/compounds. Microplate assay was used for the analysis of antioxidant activity with different products according to the procedure described in the Antioxidant assay kit (Sigma-Aldrich, St. Louis, Mo.). The relative antioxidant concentration (mM equivalent of Trolox standard) was calculated from the absorbance readings.

## C=CCc1ccc(O)c(-c2ccc(O)c(CC=C)c2)c1 [H, honokiol]
  antioxidant activity (relative ranking): least anti-oxidant activity
